Test results published in ChEMBL document CHEMBL5257105, “Identification and structure-activity relationships for a series of N, N-disubstituted 2-aminobenzothiazoles as potent inhibitors of S. aureus” (Bioorg Med Chem Lett, 2023).
≈ marks a conversion by molar mass, not a printed value. Where “and” joins values, the source holds several entries; their conditions need not be identical. Equal entries are not always repeated. Each block holds one molecule with its values, some of them ahead of it. Calls of active or inactive are those of the source. The rule behind the calls is not given here.

Legend:
Staphylococcus aureus [1] = experiment: Antibacterial activity against Staphylococcus aureus; assay type: functional
A549 = experiment: (§1) Cytotoxicity against human A549 cells; assay type: toxicity, cell-based; settings: a549
Staphylococcus aureus [2] = experiment: Antibacterial activity against Staphylococcus aureus ATCC 25923; assay type: functional
Escherichia coli [3] = experiment: Antibacterial activity against […] Escherichia coli harbouring TolC-deficient mutant; assay type: functional
Pseudomonas aeruginosa [4] = experiment: Antibacterial activity against Pseudomonas aeruginosa PAO1 harbouring delta6 mutant with pore; assay type: functional
Pseudomonas aeruginosa [5] = experiment: Antibacterial activity against Pseudomonas aeruginosa PAO1; assay type: functional
Escherichia coli [6] = experiment: Antibacterial activity against […] Escherichia coli harbouring TolC-deficient mutant with pore; assay type: functional
Escherichia coli [7] = experiment: Antibacterial activity against Escherichia coli; assay type: functional
Escherichia coli [8] = experiment: Antibacterial activity against wild type Escherichia coli harbouring pore; assay type: functional
Pseudomonas aeruginosa [9] = experiment: Antibacterial activity against Pseudomonas aeruginosa PAO1 harbouring pore; assay type: functional
Pseudomonas aeruginosa [10] = experiment: Antibacterial activity against Pseudomonas aeruginosa PAO1 harbouring delta6 mutant; assay type: functional
[11] = as §1; assay type: toxicity, cell-based; settings: A549 cells
Staphylococcus aureus [12] = experiment: Antibacterial activity against Staphylococcus aureus ATCC 223; assay type: functional
Staphylococcus aureus [13] = experiment: Antibacterial activity against Staphylococcus aureus ATCC 219; assay type: functional
Staphylococcus aureus [14] = experiment: Antibacterial activity against Staphylococcus aureus ATCC 716; assay type: functional
Staphylococcus aureus [15] = experiment: Antibacterial activity against Staphylococcus aureus ATCC 701; assay type: functional
Staphylococcus aureus [16] = experiment: Antibacterial activity against Staphylococcus aureus ATCC 711; assay type: functional
Staphylococcus aureus [17] = experiment: Antibacterial activity against Staphylococcus aureus ATCC 216; assay type: functional
Staphylococcus aureus [18] = experiment: Bactericidal activity against Staphylococcus aureus ATCC 25923 at 16 times MIC measured after 9.5 to 40 hrs by time kill assay; assay type: functional, organism-based; settings: time 9.5-40 hrs
Staphylococcus aureus [19] = experiment: Antibacterial activity against Staphylococcus aureus ATCC 217; assay type: functional
Staphylococcus aureus [20] = experiment: Antibacterial activity against Staphylococcus aureus ATCC 215; assay type: functional
Acinetobacter baumannii = experiment: Antibacterial activity against Acinetobacter baumannii ATCC 17978; assay type: functional
Staphylococcus aureus [21] = experiment: Bacteriostatic activity against Staphylococcus aureus ATCC 25923 at MIC measured after 5 to 40 hrs by time kill assay; assay type: functional, organism-based; settings: time 5-40 hrs
Staphylococcus aureus [22] = experiment: Bacteriostatic activity against Staphylococcus aureus ATCC 25923 at 4 times MIC measured after 5 to 40 hrs by time kill assay; assay type: functional, organism-based; settings: time 5-40 hrs
Escherichia coli [23] = experiment: Antibacterial activity against Escherichia coli BW25113; assay type: functional
[24] = Staphylococcus aureus, read-out: MIC
[25] = Staphylococcus aureus, read-out: MIC80

Structure (SMILES): Cc1cc(Cl)cc2sc(N(CC3CCNCC3)C(=O)c3ccco3)nc12
MIC (Escherichia coli [3]): 50 µM (≈ 19.5 µg/mL)
MIC (Pseudomonas aeruginosa [4]): 25 µM (≈ 9.75 µg/mL)
MIC (Pseudomonas aeruginosa [5]): > 200 µM
MIC (Escherichia coli [6]): 50 µM (≈ 19.5 µg/mL)
MIC (Escherichia coli [7]): 200 µM (≈ 78 µg/mL)
MIC80 (Staphylococcus aureus [1]): 19.8 µM (≈ 7.72 µg/mL)
MIC80 (Staphylococcus aureus [1]; [25]): 13.2 µM (≈ 5.15 µg/mL)
MIC (Escherichia coli [8]): 200 µM (≈ 78 µg/mL)
MIC (Pseudomonas aeruginosa [9]): > 200 µM
MIC (Pseudomonas aeruginosa [10]): 25 µM (≈ 9.75 µg/mL)

Structure (SMILES): Cc1cc(Cl)cc2sc(N(CC3CCC(N)CC3)C(=O)c3ccco3)nc12 (configuration not stated)
MIC (Escherichia coli [3]): 50 µM (≈ 20.2 µg/mL)
MIC (Pseudomonas aeruginosa [4]): 12.5 µM (≈ 5.05 µg/mL)
MIC (Pseudomonas aeruginosa [5]): > 200 µM
MIC (Escherichia coli [6]): 25 µM (≈ 10.1 µg/mL)
MIC (Escherichia coli [7]): > 200 µM
MIC80 (Staphylococcus aureus [1]): 29.6 µM (≈ 12 µg/mL)
MIC80 (Staphylococcus aureus [1]; [25]): 19.8 µM (≈ 8 µg/mL)
MIC (Escherichia coli [8]): 100 µM (≈ 40.4 µg/mL)
MIC (Pseudomonas aeruginosa [9]): > 200 µM

Structure (SMILES): Cc1cc(Cl)cc2sc(N(CC3CCCNC3)C(=O)c3ccco3)nc12 (configuration not stated)
MIC (Escherichia coli [3]): 100 µM (≈ 39 µg/mL)
MIC (Pseudomonas aeruginosa [4]): 25 µM (≈ 9.75 µg/mL)
MIC (Pseudomonas aeruginosa [5]): > 200 µM
MIC (Escherichia coli [6]): 50 µM (≈ 19.5 µg/mL)
MIC80 (Staphylococcus aureus [1]): 19.8 µM (≈ 7.72 µg/mL)
MIC80 (Staphylococcus aureus [1]; [25]): 29.6 µM (≈ 11.5 µg/mL)
MIC (Escherichia coli [8]): 100 µM (≈ 39 µg/mL)
MIC (Pseudomonas aeruginosa [9]): > 200 µM
MIC (Pseudomonas aeruginosa [10]): > 200 µM

Structure (SMILES): Cc1cc(Cl)cc2sc(N(CCCn3ccnc3)C(=O)c3ccc[nH]3)nc12
MIC (Escherichia coli [3]): 1.56 µM (≈ 0.624 µg/mL)
MIC (Pseudomonas aeruginosa [5]): > 100 µM
MIC (Escherichia coli [6]): 0.78 µM (≈ 0.312 µg/mL)
MIC (Escherichia coli [7]): > 200 µM
MIC (Staphylococcus aureus [1]; [24]): 1.7 µM (≈ 0.68 µg/mL)
MIC (Escherichia coli [8]): > 200 µM
CC50 (A549): > 100 µM
MIC (Pseudomonas aeruginosa [9]): > 100 µM
MIC (Pseudomonas aeruginosa [10]): > 100 µM

Structure (SMILES): Cc1cc(Cl)cc2sc(N(CCCn3ccnc3)Cc3ccccc3)nc12
MIC (Pseudomonas aeruginosa [4]): 3.2 µM (≈ 1.27 µg/mL)
MIC80 (Staphylococcus aureus [1]; [25]): 5.9 µM (≈ 2.34 µg/mL)
CC50 [11]: 33.3 µM
MIC (Pseudomonas aeruginosa [10]): > 200 µM

Structure (SMILES): CO[C@@H]1[C@@H](OC(N)=O)[C@@H](O)[C@H](Oc2ccc3c(O)c(NC(=O)c4ccc(O)c(CC=C(C)C)c4)c(=O)oc3c2C)OC1(C)C [NOVOBIOCIN]
MIC (Escherichia coli [3]): 1 µM (≈ 0.613 µg/mL)
MIC (Pseudomonas aeruginosa [4]): 4 µM (≈ 2.45 µg/mL)
MIC (Pseudomonas aeruginosa [5]): > 512 µM
MIC (Escherichia coli [6]): 0.125 µM (≈ 0.0766 µg/mL)
MIC (Escherichia coli [8]): 64 µM (≈ 39.2 µg/mL)
MIC (Pseudomonas aeruginosa [10]): 256 µM (≈ 157 µg/mL)

Structure (SMILES): Cc1cc(Cl)cc2sc(N(CCCn3ccnc3)C(=O)c3ccco3)nc12
MIC (Pseudomonas aeruginosa [4]): 6.25 µM (≈ 2.51 µg/mL)
MIC (Pseudomonas aeruginosa [5]): > 100 µM
MIC (Staphylococcus aureus [12]): 6.6 µM (≈ 2.65 µg/mL)
Activity (Staphylococcus aureus [18]): Active
MIC (Staphylococcus aureus [13]): 2.9 µM (≈ 1.16 µg/mL)
MIC (Staphylococcus aureus [19]): 6.6 µM (≈ 2.65 µg/mL)
MIC (Staphylococcus aureus [20]): 14.8 µM (≈ 5.93 µg/mL)
MIC (Staphylococcus aureus [14]): 4.4 µM (≈ 1.76 µg/mL)
MIC (Acinetobacter baumannii): > 100 µM
MIC (Staphylococcus aureus [15]): 4.4 µM (≈ 1.76 µg/mL)
MIC (Staphylococcus aureus [16]): 6.6 µM (≈ 2.65 µg/mL)
Activity (Staphylococcus aureus [21]): Active
MIC (Staphylococcus aureus [17]): 4.4 µM (≈ 1.76 µg/mL)
CC50 (A549): 12 µM
CC50 [11]: 34.1 µM
Activity (Staphylococcus aureus [22]): Active
MIC (Escherichia coli [23]): > 100 µM
MIC (Pseudomonas aeruginosa [10]): > 200 µM

Structure (SMILES): Cc1cc(Cl)cc2sc(N(CCCn3ccnc3)C(=O)C(C)C)nc12
MIC (Escherichia coli [3]): 3.2 µM (≈ 1.21 µg/mL)
MIC (Pseudomonas aeruginosa [4]): 0.78 µM (≈ 0.294 µg/mL)
MIC (Pseudomonas aeruginosa [5]): > 200 µM
MIC (Escherichia coli [6]): 3.2 µM (≈ 1.21 µg/mL)
MIC (Escherichia coli [7]): > 100 µM
MIC (Staphylococcus aureus [1]): 2.6 µM (≈ 0.98 µg/mL)
MIC (Staphylococcus aureus [1]; [24]): 3.9 µM (≈ 1.47 µg/mL)
MIC (Escherichia coli [8]): > 100 µM
CC50 [11]: 46.4 µM
MIC (Pseudomonas aeruginosa [9]): > 200 µM
MIC (Pseudomonas aeruginosa [10]): 50 µM (≈ 18.8 µg/mL)

Now from value to molecule, other results behind:

MIC (Staphylococcus aureus [1]; [24]): 2.6 µM (≈ 1.01 µg/mL)
Structure (SMILES): Cc1cc(Cl)cc2sc(N(CCCn3ccnc3)C(=O)C3CCC3)nc12
CC50 (A549): 44.6 µM

MIC (Staphylococcus aureus [1]; [24]): 3.9 µM (≈ 1.67 µg/mL)
Structure (SMILES): Cc1cc(C(=O)N(CCCn2ccnc2)c2nc3c(C)cc(Cl)cc3s2)oc1C
CC50 (A549): 52.1 µM

MIC (Staphylococcus aureus [2]): < 0.9 µM
Structure (SMILES): O=C(O)c1cn(C2CC2)c2cc(N3CCNCC3)c(F)cc2c1=O [CIPROFLOXACIN]

MIC (Staphylococcus aureus [1]; [24]): 19.8 µM (≈ 6.08 µg/mL)
Structure (SMILES): Cc1cc(Cl)cc2sc(NCCCn3ccnc3)nc12
CC50 [11]: 111 µM

MIC80 (Staphylococcus aureus [1]): 29.6 µM and 13.2 µM
Structure (SMILES): Cc1cc(Cl)cc2sc(N(CCCn3cc[n+](C)c3)C(=O)c3ccco3)nc12

MIC (Staphylococcus aureus [1]; [24]): 4.9 µM (≈ 2.01 µg/mL)
Structure (SMILES): Cc1cc(Cl)cc2sc(N(CCCn3ccnc3)C(=O)c3ccccc3)nc12
CC50 (A549): 37.2 µM

MIC (Staphylococcus aureus [12]): 9.9 µM (≈ 4.11 µg/mL)
MIC (Staphylococcus aureus [13]): 22.2 µM (≈ 9.21 µg/mL)
MIC (Staphylococcus aureus [2]): 2.6 µM (≈ 1.08 µg/mL)
MIC (Staphylococcus aureus [14]): 14.8 µM (≈ 6.14 µg/mL)
MIC (Staphylococcus aureus [15]): 14.8 µM (≈ 6.14 µg/mL)
MIC (Staphylococcus aureus [16]): 14.8 µM (≈ 6.14 µg/mL)
MIC (Staphylococcus aureus [1]; [24]): 2.6 µM (≈ 1.08 µg/mL)
MIC (Staphylococcus aureus [17]): 14.8 µM (≈ 6.14 µg/mL)
Structure (SMILES): Cc1ccoc1C(=O)N(CCCn1ccnc1)c1nc2c(C)cc(Cl)cc2s1
CC50 (A549): 90.2 µM

MIC80 (Staphylococcus aureus [1]; [25]): 3.9 µM (≈ 1.82 µg/mL)
Structure (SMILES): Cc1cc(Cl)cc2sc(N(CCCn3ccnc3)CS(=O)(=O)c3cccs3)nc12
CC50 [11]: 26.3 µM

MIC (Staphylococcus aureus [1]; [24]): 13.2 µM (≈ 5.34 µg/mL)
Structure (SMILES): Cc1cc(Cl)cc2sc(N(CCCn3ccnc3)C(=O)C3CCCO3)nc12 (configuration not stated)
CC50 (A549): 87.6 µM

MIC80 (Staphylococcus aureus [1]; [25]): 5.9 µM (≈ 2.13 µg/mL)
Structure (SMILES): Cc1cc(Cl)cc2sc(N(CCCn3ccnc3)CC3CC3)nc12
CC50 [11]: 65.6 µM

MIC (Staphylococcus aureus [1]; [24]): > 100 µM
Structure (SMILES): NCc1ccc2nc(N(CCCn3ccnc3)C(=O)c3ccco3)sc2c1
